Columns and labels:
Cryptococcus neoformans = assay: Antifungal activity against Cryptococcus neoformans ATCC 90112 after 48 to 72 hrs by broth microdilution method; type: functional
Candida albicans = assay: Antifungal activity against Candida albicans ATCC 10231 after 48 to 72 hrs by broth microdilution method; type: functional
Pichia kudriavzevii = assay: Antifungal activity against Candida krusei ATCC 6258 after 48 to 72 hrs by broth microdilution method; type: functional
Candida parapsilosis = assay: Antifungal activity against Candida parapsilosis ATCC 22019 after 48 to 72 hrs by broth microdilution method; type: functional; conditions: Lodderomyces parapsilosis
Nakaseomyces glabratus = assay: Antifungal activity against Candida glabrata 04-202345 after 48 to 72 hrs by broth microdilution method; type: functional
Aspergillus fumigatus = assay: Antifungal activity against Aspergillus fumigatus ATCC 204305 after 48 to 72 hrs by broth microdilution method; type: functional
Aspergillus flavus = assay: Antifungal activity against Aspergillus flavus ATCC 204304 after 48 to 72 hrs by broth microdilution method; type: functional
Aspergillus terreus = assay: Antifungal activity against Aspergillus terreus 05-202844 after 48 to 72 hrs by broth microdilution method; type: functional
Lomentospora prolificans = assay: Antifungal activity against Scedosporium prolificans 05-203060 after 48 to 72 hrs by broth microdilution method; type: functional
Scedosporium apiospermum = assay: Antifungal activity against Scedosporium apiospermum 05-203100 after 48 to 72 hrs by broth microdilution method; type: functional
Rhizopus arrhizus = assay: Antifungal activity against Rhizopus oryzae 05-203111 after 48 to 72 hrs by broth microdilution method; type: functional
Exophiala spinifera = assay: Antifungal activity against Exophiala spinifera 03-200803 after 48 to 72 hrs by broth microdilution method; type: functional
Curvularia australiensis = assay: Antifungal activity against Bipolaris australiensis 03-201798 after 48 to 72 hrs by broth microdilution method; type: functional
[1] = biological target: Phospholipase A2, major isoenzyme (Sus scrofa, UniProt P00592); assay: Inhibition of porcine pancreatic PLA2 after 1 hr by radiometric method
[2] = Inhibition of phospholipid fatty acyl chain hydrolysis activity of Cryptococcus neoformans var. grubii H99 PLB assessed as formation of radiolabeled free fatty acid at pH 4 by radiometric assay
[3] = Cytotoxicity against human erythrocytes assessed as hemolysis after 1 hr; type: cell-based, Erythrocyte
A549 = assay: Cytotoxicity against human A549 cells after 3 hrs by MTS assay; type: cell-based; conditions: A549, 3 h
MDCK = assay: Cytotoxicity against MDCK cells after 3 hrs by MTS assay; type: cell-based; conditions: Canis lupus familiaris
[4] = Selectivity index, ratio of HC50 for human erythrocytes to MIC for Cryptococcus neoformans ATCC 90112; type: functional
[5] = Selectivity index, ratio of HC50 for human erythrocytes to MIC for Candida albicans ATCC 10231; type: functional
[6] = Selectivity index, ratio of IC50 for human A549 cells to MIC for Cryptococcus neoformans ATCC 90112; type: functional
[7] = Selectivity index, ratio of IC50 for human A549 cells to MIC for Candida albicans ATCC 10231; type: functional
[8] = Selectivity index, ratio of IC50 for MDCK cells to MIC for Cryptococcus neoformans ATCC 90112; type: functional
[9] = Selectivity index, ratio of IC50 for MDCK cells to MIC for Candida albicans ATCC 10231; type: functional

Chain of Phospholipase A2, major isoenzyme (P00592 whole entry): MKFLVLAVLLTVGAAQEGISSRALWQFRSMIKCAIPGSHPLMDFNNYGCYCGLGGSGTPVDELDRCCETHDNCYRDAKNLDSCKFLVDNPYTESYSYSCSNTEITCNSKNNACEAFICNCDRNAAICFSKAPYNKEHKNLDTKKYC

- MIC (Cryptococcus neoformans): 1.4 µM
- MIC (Candida albicans): 2.7 µM
- MIC (Pichia kudriavzevii): 11 µM
- MIC (Candida parapsilosis): 1.4 µM
- MIC (Nakaseomyces glabratus): 2.7 µM
- MIC (Aspergillus fumigatus): 87.5 µM
- MIC (Aspergillus flavus): 44 µM
- MIC (Aspergillus terreus): 11 µM
- MIC (Lomentospora prolificans): 2.7 µM
- MIC (Scedosporium apiospermum): 5.5 µM
- MIC (Rhizopus arrhizus): 2.7 µM
- MIC (Exophiala spinifera): 0.7 µM
- MIC (Curvularia australiensis): 11 µM
- IC50 [1]: > 250 µM
- IC50 [2]: 104 µM
Structure (SMILES): CCCCCc1cc[n+](CCCCCCCCCCCC[n+]2ccc(CCCCC)cc2)cc1.[Cl-].[Cl-]
- MFC (Cryptococcus neoformans; Cryptococcus neoformans, ATCC 90112): 1.4 µM
- MFC (Candida albicans; Candida albicans, ATCC 10231): 2.7 µM
- MFC (Pichia kudriavzevii): 22 µM
- MFC (Candida parapsilosis): 2.7 µM
- MFC (Nakaseomyces glabratus): 2.7 µM
- MFC (Aspergillus fumigatus): 87.5 µM
- MFC (Aspergillus flavus): 87.5 µM
- MFC (Aspergillus terreus): 22 µM
- MFC (Lomentospora prolificans): 5.5 µM
- MFC (Scedosporium apiospermum): 5.5 µM
- MFC (Rhizopus arrhizus): 11 µM
- MFC (Exophiala spinifera): 0.7 µM
- MFC (Curvularia australiensis): 11 µM
- HC50 at 1 h [3]: > 350 µM
- IC50 (A549): 115 µM
- IC50 (MDCK): 150 µM
- Selectivity Index [4]: >100
- Selectivity Index [5]: >100
- Selectivity Index [6]: >40
- Selectivity Index [7]: >40
- Selectivity Index [8]: >40
- Selectivity Index [9]: >40

From ChEMBL document CHEMBL1152529, “Synthesis, antifungal, haemolytic and cytotoxic activities of a series of bis(alkylpyridinium)alkanes” (Bioorg Med Chem, 2009)
